{"source": "patent US12144886B2", "about": "“Perineural administration of resiniferatoxin for treatment of maladaptive pain” (Sorrento Therapeutics, Inc., priority 2018, dated 2024)", "key": {"[1]": {"tested_on": "declawed cat with maladaptive pain", "assay": "Tolerance and safety of perineural RTX in a single declawed cat", "assay_type": "in vivo", "method": "The safety of the injection of RTX is assessed by comparing the results of a complete blood count (CBC) and a chemistry panel done at screening with the results obtained at day 14. Cats were also monitored for adverse events.\nTolerance, safety, and analgesic effects of RTX administration were evaluated in a single declawed cat with maladaptive pain. […] The cat also presented a self-limiting decreased appetite for 12 hours post injection."}, "[2]": {"tested_on": "Crl:CD(SD) Sprague Dawley rats", "assay": "Single dose nerve block injection safety study in rats with 14-day recovery", "assay_type": "in vivo, rat", "conditions": "for Food consumption: Days 2 to 7", "source_text": "This study was directed to determining the safety of administering RTX, when given as a nerve block injection as a single dose to rats.\n119 male and 119 female Crl:CD(SD) Sprague Dawley rats were obtained from Charles River Laboratories, Raleigh, NC. The animals were 10 weeks old and weighed between 212 and 482 g at the initiation of dosing.\nThe nerve block injection doses were given into the right thigh. The animals were temporarily restrained for dose administration. Animals were sedated via isoflurane inhalation for dose administration. The day of dosing for each animal was designated as Day 1. A necropsy was conducted for a recovery study animal that died on study, and specified tissues were retained. The animal was refrigerated prior to necropsy to minimize autolysis.\nToxicokinetic animals surviving until scheduled euthanasia were euthanized by carbon dioxide inhalation.\nMain study and recovery animals were subjected to a complete necropsy examination. A board-certified veterinary pathologist was available for scheduled necropsies.\nAll statistical tests were conducted at the 5% significance level. All pairwise comparisons were conducted using two-sided tests.\nThe groups were compared using an overall one-way ANOVA F-test if Levene's test was not significant or the Kruskal-Wallis test if it was significant. […] Datasets with two groups were compared using a Dunnett's test (equivalent to t-test in Nevis 2012 tables) or Dunn's test (equivalent to Wilcoxon Rank-Sum test in Nevis 2012 tables)."}, "[3]": {"conditions": "one cat, 2.5 μg/forelimb perineural"}, "[4]": {"conditions": "10 μg, both sexes, terminal euthanasia"}}}
{"smiles": "C=C(C)[C@]12C[C@@H](C)[C@@]34O[C@](Cc5ccccc5)(O[C@@H]1[C@@H]3C=C(COC(=O)Cc1ccc(O)c(OC)c1)C[C@]1(O)C(=O)C(C)=C[C@@H]41)O2", "note": "[RTX, resiniferatoxin]", "values": [{"measurement": "Allergic-like reactions", "setting": "[1]; one cat", "result": "No signs of allergic-like reactions were observed"}, {"measurement": "Edema or pain in the injected areas", "setting": "[1]; one cat", "result": "no signs of edema or pain were present"}, {"measurement": "Resolution of adverse events (panting, salivation)", "setting": "[1]; one cat", "result": "resolved within two hours"}, {"measurement": "Complications during RTX administration", "setting": "[1]; [3]", "result": "No complications were observed"}, {"measurement": "Tolerability of injection", "setting": "[1]; [3]", "result": "generally well tolerated"}, {"measurement": "Adverse events", "setting": "[1]; one hour post-injection", "result": "panting and salivation"}, {"measurement": "Duration of self-limiting decreased appetite", "setting": "[1]; post injection, one cat", "result": 12, "unit": "h"}, {"measurement": "Food consumption", "setting": "[2]; 2.5 μg, females only", "result": "statistically significant decrease"}, {"measurement": "Unscheduled death", "setting": "[2]; 2.5 μg, one recovery study female, unrelated to test article, attributed to aspiration-related foreign material/inflammation in the lung", "result": "found dead on Day 2"}, {"measurement": "Microscopic change in the skeletal muscle", "setting": "[2]; 10 μg", "result": "myofiber degeneration/necrosis"}, {"measurement": "Spleen microscopic correlate", "setting": "[2]; 10 μg, both sexes", "result": "minimal decreased lymphoid cellularity of the white pulp"}, {"measurement": "Thymus microscopic correlate", "setting": "[2]; 10 μg, both sexes", "result": "minimal to mild decreased lymphoid cellularity"}, {"measurement": "Spleen weights", "setting": "[2]; [4]", "result": "Statistically significant lower absolute and relative spleen weights"}, {"measurement": "Thymic weights", "setting": "[2]; [4]", "result": "Lower absolute and relative thymic weights"}, {"measurement": "Neutrophils", "setting": "[2]; 10 μg, females only", "result": "statistically significant increase that remained increased after the recovery period"}, {"measurement": "Mean body weight gain", "setting": "[2]; 10 μg, females, Days 1 to 14", "result": "statistically significant decrease"}, {"measurement": "Food consumption", "setting": "[2]; 10 μg, males only", "result": "statistically significant decrease"}, {"measurement": "Mean body weight gain", "setting": "[2]; 10 μg, males, Days 1 to 2", "result": "statistically significant decrease"}, {"measurement": "Microscopic change in the mammary gland (non-adverse)", "setting": "[2]; >2.5 μg", "result": "single cell necrosis"}, {"measurement": "Test article-related organ weight changes at end of recovery", "setting": "[2]; end of the recovery period (Day 15)", "result": "not observed"}, {"measurement": "Reversibility of microscopic changes", "setting": "[2]; following a 14-day recovery period", "result": "fully recovered"}, {"measurement": "Clinical chemistry parameters", "setting": "[2]; rats", "result": "no adverse RTX (resiniferatoxin)-related changes"}, {"measurement": "Tolerability as nerve block injection", "setting": "[2]; rats, 0.625, 2.5, and 10 μg single dose", "result": "well tolerated"}, {"measurement": "Differences in hematology, coagulation, clinical chemistry and urinalysis parameters", "setting": "[2]; rats, all dose groups", "result": "not considered adverse or were not considered vehicle or test article related"}, {"measurement": "no-observed-adverse-effect level (NOAEL)", "setting": "[2]; rats, single nerve block injection", "result": 10, "unit": "µg"}, {"measurement": "Mortality, organ weight, gross observations", "setting": "[2]; single dose 0, 0.625, 2.5, or 10 μg", "result": "no test article-related mortality, differences in organ weight, or gross observations"}, {"measurement": "Gross findings", "setting": "[2]; terminal euthanasia or recovery period animals", "result": "No test article-related gross findings"}]}
